Measured values taken from US9938261B2, “Heterocyclic compounds and methods of use thereof” (AMBIT BIOSCIENCES CORPORATION, priority 2011, dated 2018).
pIC50, pKd: −log10 of the molar value.

Legend:
[1] = target: kinase panel containing either 386 or 392 distinct kinases; assay: Kinase selectivity score S10 from competition binding panel; conditions: 10 μM, panel of 386 or 392 distinct kinases
Summary of the method: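 S10 is the number of kinases with percent-of-control under 10, divided by all distinct wild-type kinases tested, from a single 10 μM concentration. Binding measured by qPCR of kinase recovered from ligand-coated beads after 1 h equilibrium at room temperature; kinases were phage fusions or DNA-tagged HEK-293 products.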

PDGFRβ = target: T1, PDGFRβ (Homo sapiens, UniProt P09619); assay: Competition binding assay, PDGFRβ Kd; conditions: competition binding
T1 construct: made in house
Summary of the method: (§1)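 Kinases as T7-phage fusions or HEK-293-expressed DNA-tagged constructs competed against immobilized biotinylated ligand on streptavidin beads, 1 h at room temperature in binding buffer. Bound kinase eluted and quantified by qPCR; Kd from eleven-point threefold dilution series.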

M-NFS-60 cells = assay: M-NFS-60 cell proliferation assay (Alamar Blue); assay type: cell-based, mouse; conditions: Mus musculus; M-NFS-60 cell proliferation; read-out: CSF1R M-NFS-60 CTB:IC50
Summary of the method: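 Alamar Blue reduction (3 h; 560/590 nm) measured viability after 72 h, 37 °C treatment with nine half-log compound concentrations at 0.5% DMSO. Cells: M-CSF-dependent (20 ng/mL) murine M-NFS-60 in RPMI plus 10% FBS. IC50s, averaged from duplicates, reflect half-maximal inhibition of proliferation relative to control.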

CSF1R = CSF1R (Homo sapiens, UniProt P07333); assay: Competition binding assay, CSF1R Kd; set-up: made in house; conditions: competition binding
Summary of the method: as §1

KIT = target: T2, KIT (Homo sapiens, UniProt P10721); assay: Competition binding assay, KIT Kd; conditions: competition binding
T2 construct: made in house
Summary of the method: as §1

T1 sequence (P09619 33-1106): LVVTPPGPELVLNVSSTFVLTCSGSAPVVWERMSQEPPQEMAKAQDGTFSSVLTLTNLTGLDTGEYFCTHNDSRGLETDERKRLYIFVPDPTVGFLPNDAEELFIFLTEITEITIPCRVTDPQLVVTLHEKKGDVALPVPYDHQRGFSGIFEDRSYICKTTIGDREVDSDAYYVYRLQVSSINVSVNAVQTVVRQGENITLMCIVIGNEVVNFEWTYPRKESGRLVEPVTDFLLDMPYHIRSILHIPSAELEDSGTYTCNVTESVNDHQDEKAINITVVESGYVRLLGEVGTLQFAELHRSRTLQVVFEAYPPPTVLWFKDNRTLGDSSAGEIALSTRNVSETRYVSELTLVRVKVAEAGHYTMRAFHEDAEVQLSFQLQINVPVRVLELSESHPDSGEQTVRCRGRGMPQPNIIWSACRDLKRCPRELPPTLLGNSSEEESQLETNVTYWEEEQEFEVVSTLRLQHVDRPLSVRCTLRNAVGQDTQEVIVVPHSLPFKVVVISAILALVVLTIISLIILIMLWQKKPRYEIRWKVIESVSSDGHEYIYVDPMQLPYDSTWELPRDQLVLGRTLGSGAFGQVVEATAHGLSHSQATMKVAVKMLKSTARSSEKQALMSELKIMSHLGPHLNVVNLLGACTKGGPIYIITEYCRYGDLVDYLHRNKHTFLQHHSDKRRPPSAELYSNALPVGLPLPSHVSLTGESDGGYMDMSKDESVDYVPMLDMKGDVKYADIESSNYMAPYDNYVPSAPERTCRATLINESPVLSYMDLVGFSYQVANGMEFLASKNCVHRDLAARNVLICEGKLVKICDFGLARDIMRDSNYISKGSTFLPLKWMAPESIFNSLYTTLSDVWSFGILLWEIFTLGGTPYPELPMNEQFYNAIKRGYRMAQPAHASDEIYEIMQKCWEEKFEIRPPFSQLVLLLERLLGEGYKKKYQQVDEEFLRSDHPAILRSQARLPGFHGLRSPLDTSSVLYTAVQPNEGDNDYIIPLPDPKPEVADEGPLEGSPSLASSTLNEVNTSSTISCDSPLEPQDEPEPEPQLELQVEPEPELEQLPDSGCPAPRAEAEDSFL
CSF1R, sequence (P07333 20-972): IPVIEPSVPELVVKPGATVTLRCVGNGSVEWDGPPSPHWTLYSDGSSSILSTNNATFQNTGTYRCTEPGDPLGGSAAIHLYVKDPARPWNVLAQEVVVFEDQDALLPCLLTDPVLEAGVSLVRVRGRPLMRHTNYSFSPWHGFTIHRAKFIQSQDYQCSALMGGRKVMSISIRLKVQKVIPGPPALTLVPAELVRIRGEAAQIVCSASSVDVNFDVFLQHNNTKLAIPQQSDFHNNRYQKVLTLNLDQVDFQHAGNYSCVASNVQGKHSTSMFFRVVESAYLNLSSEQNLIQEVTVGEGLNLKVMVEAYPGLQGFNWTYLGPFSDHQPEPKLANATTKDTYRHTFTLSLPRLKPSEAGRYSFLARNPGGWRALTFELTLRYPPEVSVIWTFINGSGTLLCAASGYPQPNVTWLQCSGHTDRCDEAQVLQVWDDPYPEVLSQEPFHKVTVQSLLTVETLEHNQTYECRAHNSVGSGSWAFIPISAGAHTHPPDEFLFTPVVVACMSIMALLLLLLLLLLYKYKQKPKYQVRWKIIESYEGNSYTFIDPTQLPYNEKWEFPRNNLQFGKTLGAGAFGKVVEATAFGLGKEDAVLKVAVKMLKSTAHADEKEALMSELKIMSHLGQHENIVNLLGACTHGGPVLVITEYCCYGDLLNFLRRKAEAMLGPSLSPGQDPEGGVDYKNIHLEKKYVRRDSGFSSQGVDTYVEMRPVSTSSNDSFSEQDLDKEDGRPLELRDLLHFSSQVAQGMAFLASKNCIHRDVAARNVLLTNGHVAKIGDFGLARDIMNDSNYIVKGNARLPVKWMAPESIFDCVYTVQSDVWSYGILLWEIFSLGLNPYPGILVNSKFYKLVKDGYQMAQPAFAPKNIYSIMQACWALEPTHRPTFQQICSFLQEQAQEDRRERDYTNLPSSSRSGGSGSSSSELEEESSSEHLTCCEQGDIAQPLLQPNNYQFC
T2 sequence (P10721 26-976): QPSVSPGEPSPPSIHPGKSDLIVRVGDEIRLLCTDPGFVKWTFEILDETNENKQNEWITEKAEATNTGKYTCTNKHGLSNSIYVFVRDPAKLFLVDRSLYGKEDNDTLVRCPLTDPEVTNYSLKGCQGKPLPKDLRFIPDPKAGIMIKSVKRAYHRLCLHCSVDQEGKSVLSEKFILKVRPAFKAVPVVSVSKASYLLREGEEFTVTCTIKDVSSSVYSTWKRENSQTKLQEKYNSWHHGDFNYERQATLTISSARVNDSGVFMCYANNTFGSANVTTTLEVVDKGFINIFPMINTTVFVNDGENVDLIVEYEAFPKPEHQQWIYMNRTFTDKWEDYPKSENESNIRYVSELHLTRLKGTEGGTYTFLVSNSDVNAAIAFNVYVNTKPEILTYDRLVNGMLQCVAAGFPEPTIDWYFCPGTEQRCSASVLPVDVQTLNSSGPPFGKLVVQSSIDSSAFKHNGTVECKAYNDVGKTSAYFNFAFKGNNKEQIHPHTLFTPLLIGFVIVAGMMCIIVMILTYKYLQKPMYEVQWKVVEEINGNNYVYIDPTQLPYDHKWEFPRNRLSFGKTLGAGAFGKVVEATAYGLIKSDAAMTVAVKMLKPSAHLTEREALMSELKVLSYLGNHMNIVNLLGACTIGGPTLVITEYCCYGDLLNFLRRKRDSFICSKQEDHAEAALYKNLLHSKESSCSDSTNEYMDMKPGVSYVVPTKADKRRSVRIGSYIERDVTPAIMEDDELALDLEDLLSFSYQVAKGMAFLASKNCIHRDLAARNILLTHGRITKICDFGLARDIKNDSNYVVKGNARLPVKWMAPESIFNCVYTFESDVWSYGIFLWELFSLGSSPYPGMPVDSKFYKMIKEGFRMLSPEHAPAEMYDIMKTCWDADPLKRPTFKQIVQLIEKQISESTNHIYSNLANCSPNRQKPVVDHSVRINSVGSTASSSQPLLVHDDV

| SMILES | Kinase specificity S(10) [1] | pKd (PDGFRβ) | pIC50 (M-NFS-60 cells) | pKd (CSF1R) | pKd (KIT) |
| --- | --- | --- | --- | --- | --- |
| O=c1c(N2CCOCC2)nccn1Cc1ccc2nc(N[C@@H]3CCCC[C@H]3O)sc2c1 [Example 222, 1-((2-(((1R,2R)-2-hydroxycyclohexyl)amino)benzo[d]thiazol-6-yl)methyl)-3-morpholinopyrazin-2(1H)-one] | A (A≤0.01) | 5.70 to 6.30 | < 5.82 | 7.30 to 7.70 | < 5.70 |
| O=C(c1ccn2c(Cc3ccc4nc(N[C@@H]5CCCC[C@H]5O)sc4c3)cnc2c1)N1CCCC1 [Example 223, (3-((2-(((1R,2R)-2-hydroxycyclohexyl)amino)benzo[d]thiazol-6-yl)methyl)imidazo[1,2-a]pyridin-7-yl)(pyrrolidin-1-yl)methanone] | A (A≤0.01) | 6.30 to 7.30 | 6.40 to 7.30 | 7.70 to 8.30 | 6.30 to 7.00 |
| O=C(O)/C=C/c1ccc2c(c1)ncn2Cc1ccc2nc(N[C@@H]3CCCC[C@H]3O)sc2c1 [Example 224, (E)-3-(1-((2-(((1R,2R)-2-hydroxycyclohexyl)amino)benzo[d]thiazol-6-yl)methyl)-1H-benzo[d]imidazol-5-yl)acrylic acid] | A (A≤0.01) | 6.30 to 7.30 | < 5.82 | 7.70 to 8.30 | ≥ 7.00 |
| O[C@@H]1CCCC[C@H]1Nc1nc2ccc(Cn3cnc4cc(-n5ccnc5)ccc43)cc2s1 [Example 226, (1R,2R)-2-((6-((5-(1H-imidazol-1-yl)-1H-benzo[d]imidazol-1-yl)methyl)benzo[d]thiazol-2-yl)amino)cyclohexanol] | B (0.01<B≤0.02) | ≥ 7.30 | ≥ 7.30 | ≥ 8.30 | ≥ 7.00 |
| Cn1nnc(-c2ccc3c(c2)ncn3Cc2ccc3nc(N[C@@H]4CCCC[C@H]4O)sc3c2)n1 [Example 227, (1R,2R)-2-((6-((5-(2-methyl-2H-tetrazol-5-yl)-1H-benzo[d]imidazol-1-yl)methyl)benzo[d]thiazol-2-yl)amino)cyclohexanol] | B (0.01<B≤0.02) | 6.30 to 7.30 | ≥ 7.30 | 7.70 to 8.30 | 6.30 to 7.00 |
| O[C@H]1[C@@H](O)CCC[C@H]1Nc1nc2ccc(Cn3cnc4cc(F)cnc43)cc2s1 [Example 228, (1S,2R,3R)-3-((6-((6-fluoro-3H-imidazo[4,5-b]pyridin-3-yl)methyl)benzo[d]thiazol-2-yl)amino)cyclohexane-1,2-diol] | A (A≤0.01) | 6.30 to 7.30 | < 5.82 | < 7.30 | 5.70 to 6.30 |
| O[C@@H]1[C@H](O)CCC[C@H]1Nc1nc2ccc(Cc3cnc4cc(-n5cccn5)ccn34)cc2s1 [Example 229, (1R,2S,3R)-3-((6-((7-(1H-pyrazol-1-yl)imidazo[1,2-a]pyridin-3-yl)methyl)benzo[d]thiazol-2-yl)amino)cyclohexane-1,2-diol] | A (A≤0.01) | ≥ 7.30 | 6.40 to 7.30 | 7.70 to 8.30 | ≥ 7.00 |
| O[C@@H]1[C@H](O)CCC[C@H]1Nc1nc2ccc(Cc3cnc4cc(-n5nccn5)ccn34)cc2s1 [Example 231, (1R,2S,3R)-3-((6-((7-(2H-1,2,3-triazol-2-yl)imidazo[1,2-a]pyridin-3-yl)methyl)benzo[d]thiazol-2-yl)amino)cyclohexane-1,2-diol] | A (A≤0.01) | 6.30 to 7.30 | ≥ 7.30 | 7.70 to 8.30 | 5.70 to 6.30 |
| C=Cc1ccc2c(c1)ncn2Cc1ccc2nc(N[C@@H]3CCC[C@@H](O)[C@H]3O)sc2c1 [Example 232, (1R,2S,3R)-3-((6-((5-vinyl-1H-benzo[d]imidazol-1-yl)methyl)benzo[d]thiazol-2-yl)amino)cyclohexane-1,2-diol] | A (A≤0.01) | ≥ 7.30 | ≥ 7.30 | ≥ 8.30 | ≥ 7.00 |
| O[C@@H]1[C@H](O)CCC[C@H]1Nc1nc2ccc(Cn3cnc4cc(OC5COC5)ccc43)cc2s1 [Example 233, (1R,2S,3R)-3-((6-((5-(oxetan-3-yloxy)-1H-benzo[d]imidazol-1-yl)methyl)benzo[d]thiazol-2-yl)amino)cyclohexane-1,2-diol] | A (A≤0.01) | ≥ 7.30 | 6.40 to 7.30 | ≥ 8.30 | ≥ 7.00 |
| O[C@@H]1[C@H](O)CCC[C@H]1Nc1nc2ccc(Cn3cnc4cc(-n5cncn5)cnc43)cc2s1 [Example 234, (1R,2S,3R)-3-((6-((6-(1H-1,2,4-Triazol-1-yl)-3H-imidazo[4,5-b]pyridin-3-yl)methyl)benzo[d]thiazol-2-yl)amino)cyclohexane-1,2-diol] | A (A≤0.01) | ≥ 7.30 | 6.40 to 7.30 | 7.70 to 8.30 | ≥ 7.00 |
| O[C@@H]1[C@H](O)CCC[C@H]1Nc1nc2ccc(Cn3cnc4cc(N5CCOCC5)ccc43)cc2s1 [Example 235, (1R,2S,3R)-3-((6-((5-morpholino-1H-benzo[d]imidazol-1-yl)methyl)benzo[d]thiazol-2-yl)amino)cyclohexane-1,2-diol] | A (A≤0.01) | ≥ 7.30 | 6.40 to 7.30 | 7.70 to 8.30 | ≥ 7.00 |
| Cn1nnc(-c2ccc3c(c2)ncn3Cc2ccc3nc(N[C@@H]4CCC[C@@H](O)[C@H]4O)sc3c2)n1 [Example 236, (1R,2S,3R)-3-((6-((5-(2-methyl-2H-tetrazol-5-yl)-1H-benzo[d]imidazol-1-yl)methyl)benzo[d]thiazol-2-yl)amino)cyclohexane-1,2-diol] | A (A≤0.01) | 6.30 to 7.30 | 6.40 to 7.30 | 7.70 to 8.30 | 6.30 to 7.00 |
